Literature values in patent US20110015368A1, “CD4-RECEPTOR-DERIVED PEPTIDES AND METHOD FOR THE PREPARATION THEREOF” (priority 2006, published 2011).

System: HIV
Conditions: Esté et al. 1997

Q: For heparin, which “Inhibiting the infection of cells by HIV” value is on record?
A: capable of inhibiting the infection of cells by HIV

Q: Which “Inhibiting the infection of cells by HIV” value does the source give for dextran sulphate here?
A: capable of inhibiting the infection of cells by HIV

Q: With chondroitin sulphate as the substance, how does the “Inhibiting the infection of cells by HIV” value read?
A: not
